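Values below derive from 48-hour exposures of cells grown in 96-well plates, with endpoints linearly interpolated between the two concentrations bracketing the appropriate inhibition level. Here, GI50 denotes the concentration required for 50% inhibition of growth.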 Activity calls are given as the source filed them. Cut-off read from the data, not from the text of the source: active = GI50 up to about 1.1 µM and inactive = higher.
What was measured:
Assay in all cases: growth of human tumour cells (NCI), 48 h
786-0 = test system: 786-0
A549 = test system: A549
ACHN = test system: ACHN
CCRF-CEM = test system: CCRF-CEM
COLO 205 = test system: COLO 205
DLD-1 = test system: DLD-1
DMS-273 = test system: DMS-273
EKVX = test system: EKVX
HCC 2998 = test system: HCC 2998
HCT-116 = test system: HCT-116
HCT-15 = test system: HCT-15
HL-60 = test system: HL-60
HOP-18 = test system: HOP-18
HOP-62 = test system: HOP-62
HOP-92 = test system: HOP-92
HT-29 = test system: HT-29
IGROV-1 = test system: IGROV-1
K562 = test system: K562
KM-20L2 = test system: KM-20L2
KM12 = test system: KM12
LOX IMVI = test system: LOX IMVI
LXFL 529 = test system: LXFL 529
M14 = test system: M14
M19-MEL = test system: M19-MEL
MOLT-4 = test system: MOLT-4
NCI-H23 = test system: NCI-H23
NCI-H460 = test system: NCI-H460
NCI-H522 = test system: NCI-H522
OVCAR-3 = test system: OVCAR-3
OVCAR-4 = test system: OVCAR-4
OVCAR-5 = test system: OVCAR-5
OVCAR-8 = test system: OVCAR-8
RPMI-8226 = test system: RPMI-8226
RXF 393 = test system: RXF 393
SF-268 = test system: SF-268
SF-295 = test system: SF-295
SK-MEL-28 = test system: SK-MEL-28
SK-MEL-5 = test system: SK-MEL-5
SK-OV-3 = test system: SK-OV-3
SN12C = test system: SN12C
SNB-19 = test system: SNB-19
SR = test system: SR
SW-620 = test system: SW-620
TK-10 = test system: TK-10
U-251 = test system: U-251
UACC-257 = test system: UACC-257
UACC-62 = test system: UACC-62
UO-31 = test system: UO-31
XF498 = test system: XF498
BT-549 = test system: BT-549
DMS-114 = test system: DMS-114
DU-145 = test system: DU-145
Hs-578T = test system: Hs-578T
MDA-MB-231 = test system: MDA-MB-231
MDA-MB-435 = test system: MDA-MB-435
MDA-N = test system: MDA-N
PC-3 = test system: PC-3
SNB-78 = test system: SNB-78
T47D = test system: T47D

COC(=O)N/N=C/c1oc(-c2cccc([N+](=O)[O-])c2)c(-c2cccc([N+](=O)[O-])c2)c1[N+](=O)[O-]
GI50 (786-0): > 100 µM (inactive)
GI50 (A549): > 100 µM (inactive)
GI50 (ACHN): > 100 µM (inactive)
GI50 (CCRF-CEM): 22.1 µM (inactive)
GI50 (COLO 205): > 100 µM (inactive)
GI50 (DLD-1): > 100 µM (inactive)
GI50 (DMS-273): > 100 µM (inactive)
GI50 (EKVX): > 100 µM (inactive)
GI50 (HCC 2998): > 100 µM (inactive)
GI50 (HCT-116): > 100 µM (inactive)
GI50 (HCT-15): > 100 µM
GI50 (HL-60): 19.3 µM (inactive)
GI50 (HOP-18): > 100 µM (inactive)
GI50 (HOP-62): > 100 µM (inactive)
GI50 (HOP-92): 49.3 µM (inactive)
GI50 (HT-29): > 100 µM (inactive)
GI50 (IGROV-1): > 100 µM (inactive)
GI50 (K562): 26.5 µM (inactive)
GI50 (KM-20L2): > 100 µM (inactive)
GI50 (KM12): > 100 µM (inactive)
GI50 (LOX IMVI): 37.2 µM (inactive)
GI50 (LXFL 529): > 100 µM (inactive)
GI50 (M14): > 100 µM (inactive)
GI50 (M19-MEL): > 100 µM (inactive)
GI50 (MOLT-4): 24.2 µM (inactive)
GI50 (NCI-H23): > 100 µM (inactive)
GI50 (NCI-H460): > 100 µM (inactive)
GI50 (NCI-H522): 60.8 µM (inactive)
GI50 (OVCAR-3): > 100 µM (inactive)
GI50 (OVCAR-4): > 100 µM (inactive)
GI50 (OVCAR-5): > 100 µM (inactive)
GI50 (OVCAR-8): > 100 µM (inactive)
GI50 (RPMI-8226): 30.1 µM (inactive)
GI50 (RXF 393): > 100 µM (inactive)
GI50 (SF-268): > 100 µM (inactive)
GI50 (SF-295): > 100 µM (inactive)
GI50 (SK-MEL-28): > 100 µM (inactive)
GI50 (SK-MEL-5): > 100 µM (inactive)
GI50 (SK-OV-3): > 100 µM (inactive)
GI50 (SN12C): > 100 µM (inactive)
GI50 (SNB-19): > 100 µM (inactive)
GI50 (SR): 40.7 µM (inactive)
GI50 (SW-620): > 100 µM (inactive)
GI50 (TK-10): > 100 µM (inactive)
GI50 (U-251): > 100 µM (inactive)
GI50 (UACC-257): > 100 µM (inactive)
GI50 (UACC-62): 59.8 µM (inactive)
GI50 (UO-31): > 100 µM (inactive)
GI50 (XF498): > 100 µM (inactive)

C/C=C(\C)c1cc(=O)c2c(C)cc3c(c2o1)C(=O)c1c(O)c(C2CC(C)(N(C)C)C(O)C(C)O2)cc(C2CC(N(C)C)C(O)C(C)O2)c1C3=O (stereo unspecified)
GI50 (786-0): 0.13 µM (active)
GI50 (ACHN): 0.0789 µM (active)
GI50 (BT-549): 0.223 µM (active)
GI50 (DLD-1): 2.31 µM (inactive)
GI50 (DMS-114): 1.5 µM (inactive)
GI50 (DMS-273): 1.91 µM (inactive)
GI50 (DU-145): 0.138 µM (active)
GI50 (HOP-18): 0.154 µM (active)
GI50 (HOP-92): 0.256 µM (active)
GI50 (Hs-578T): 0.247 µM (active)
GI50 (KM-20L2): 2.81 µM (inactive)
GI50 (M14): 0.129 µM (active)
GI50 (M19-MEL): 3.21 µM (inactive)
GI50 (MDA-MB-231): 0.156 µM (active)
GI50 (MDA-MB-435): 0.217 µM (active)
GI50 (MDA-N): 0.178 µM (active)
GI50 (PC-3): 0.229 µM (active)
GI50 (SNB-78): 3.87 µM (inactive)
GI50 (SR): 0.267 µM (active)
GI50 (T47D): 0.257 µM (active)
GI50 (TK-10): 0.237 µM (active)
GI50 (XF498): < 0.01 µM (active)
